Measurements: patent publication US20210106612A1, “TARGET GENE TRANSCRIPTIONAL REPRESSION INHIBITOR THAT CAN BE DESIGNED IN A SEQUENCE-SPECIFIC MANNER, COMPOSITION CONTAINING SAME, AND USE THEREOF” (National University Corporation Chiba University, priority 2016, published 2021)

Key:
[1] = test system: promoter region of the MLH1 gene; test: methylation of promoter region of MLH1 gene in RKO cells, pyrosequencing; format: cell-based
Experimental: 1.0×10^5 cells of the […] cells were seeded over a 6 cm dish and treated with a medium containing 5.0 μM 5-aza-2'-deoxycytidine (AZA) over 7 days from the next day. The medium was replaced with a fresh medium every 24 hours. The cells were treated with a medium containing 10 nM trichostatin A (TSA) on the 7th day and recovered on the 8th day. […] The cells of the 8th day were cultured under hypoxic conditions of 1% O2 and 5% CO2. The cells were treated with 0.1% DMSO containing 5 μM PIP1 or PIP2, recovered on the 0th day (R0), the 20th day (R20) and the 30th day ([…]), and examined for the degree of methylation in the region from -27 to -1 of the MLH1 gene by pyrosequencing. During the treatment with PIP, the medium containing PIP1 or PIP2 was replaced every 5 days, and the cells were subcultured when becoming confluent.

[2] = test system: MLH1 gene; test: expression of mRNA of the MLH1 gene in RKO cells by RT-PCR; format: cell-based
[3] = test system: RKO cells; test: genome-wide DNA methylation analysis (Infinium Human Methylation 450 BeadChip) in RKO cells; format: cell-based; conditions: for genome-wide methylation level: RKO cells, 0.5 μM AZA, 10 μM Im0 or Im3 under hypoxic conditions, FIG. 8; for genes whose methylation level was reduced by Im0 and Im3 in common, TSS±1 kb region / probes whose methylation level was reduced by Im0 and Im3 in common, TSS±1 kb region / probes whose methylation level was reduced by Im0 and Im3 in common, whole genome: β value <0.65 in Im0-treated and in Im3-treated cells of H75; for genes whose methylation was selectively reduced by this PIP, TSS±1 kb region / probes whose methylation was selectively reduced by this PIP, TSS±1 kb region / probes whose methylation was selectively reduced by this PIP, whole genome: β value <0.65 with this PIP and >0.8 with the other PIP on H75, 10 μM, 75 days, hypoxia after AZA
Experimental: (§1) The large intestine cancer cell line RKO cells were seeded at a density of 1×10^5 cells over a 6 cm dish and incubated for 24 hours. Subsequently, the culture solution was replaced with a culture solution containing 0.5 μM 5-aza-2′-deoxycytidine (AZA). The cultured cells were exposed to AZA over 2.4 hours. The cells were recovered on the 10th day, or cultured under hypoxic conditions as mentioned below.
(§2) In order to culture the cells under hypoxic conditions, the cells were cultured for 8 days under continuous aeration conditions with humidified air containing 94% N2, 5% CO2 and 1% O2 in an incubator equipped with an O2 sensor and MCO-18M regulator (Sanyo Electric Co., Ltd., Osaka, Japan). The CO2 concentration was maintained by the internal CO2 concentration regulation mechanism. Subsequently, the AZA-treated cells were treated with 0.1% DMSO containing 10 μM Im0 or Im3 for 75 days. During this operation, the medium containing PIP was replaced every 5 days. The cells were subcultured at a density of 2×10^5 cells over a 6 cm dish when becoming confluent. The cells were recovered on the 0th day (H0, before hypoxia treatment) and the 75th day (H75).
Genome-wide DNA methylation analysis was conducted as follows: first, 500 ng of genomic DNA obtained from each sample was treated with bisulfite using Zymo EZ DNA Methylation Kit (Zymo Research Corp., Irvine, Calif., USA). Whole genome amplification, labeling, hybridization and scanning were performed according to manufacturers' manuals.
Methylation analysis was conducted using Infinium Human Methylation 450 BeadChip (Illumina, Inc.) for the whole genome or in a ±1 kb region of the transcription start site (TSS) of each gene. Specifically, the ratio of probes for methylated sequences to the total of the probes for methylated sequences and probes for nonmethylated sequences (in the present specification, referred to as a “β value”) was determined. The β value is 0.00 when no methylation is found in all CpG sites, and is 1.00 when all CpG sites are methylated.
First, genes with β value >0.8 in the negative control RKO cells were selected. Genes with β value <0.5 on HO and β value >0.8 in the presence of treatment with 0.1% DMSO on H75 were further selected from the selected genes.

[4] = test system: FAM-labeled double-stranded oligo DNA of 15 base pairs including a region from −22 to −8 of the MLH1 gene; test: gel shift assay of binding to the target sequence; conditions: 1 μM double-stranded oligo DNA, 37° C. for 1 hour, FIG. 2A
Experimental: PIP1 was confirmed by gel shift assay to bind to the target sequence. FAM-labeled double-stranded oligo DNA of 15 base pairs including a region from −22 to −8 of the MLH1 gene (double-stranded oligo DNA obtained by annealing sequences of SEQ ID NOs: 2 and 3) was prepared (lower part of FIG. 2A). 1 μM double-stranded oligo DNA was mixed at an indicated final concentration with PIP1 or PIP2 dissolved in 10 μL of a reaction solution containing 10 mM Tris-HCl (pH 8.0) and 10% DMSO, followed by incubation at 37° C. for 1 hour. The obtained reaction product was electrophoresed using 20% polyacrylamide gel, and double-stranded DNA on the gel was visualized using LAS-3000 (Fujifilm Corp., Japan).

[5] = test system: region from −27 to −1 of the MLH1 gene; test: in vitro methylation of MLH1 plasmid by CpG methyltransferase M.SssI, pyrosequencing; format: biochemical; conditions: varying concentrations of PIP1, M.SssI, FIG. 3C
Experimental: A region from −780 to +483 (SEQ ID NO: 1) of MLH1 was amplified from the genomic DNA of the RKO cells by PCR using primers of SEQ ID NOs: 6 and 7 to obtain a DNA fragment, which was then integrated into pGEM-T Easy vector (Promega Corp., Fitchburg, USA) according to the manufacturer's manual (see FIG. 3A). 1 μg of the obtained plasmid was incubated at 25° C. for 12 hours in varying concentrations of PIP1 or 40 μM of PIP2 and 1× NEB buffer solution 2 (New England Biolabs Inc., Ipswich, USA) to bind the pyrrole imidazole polyamide to the DNA. For a negative control, DMSO was added to the plasmid and incubated.
[…] of S-adenosylmethionine (New England Biolabs Inc.) and 4 units of CpG methyltransferase M.SssI (New England Biolabs Inc.) were added to each sample, and 5% DMSO was added thereto to adjust the amount to 20 μL. After incubation at 37° C. for 2 hours, the reaction was terminated by incubation at 65° C. for 20 minutes. The DNA was purified by ethanol precipitation and dissolved in 100 μL of 10 mM Tris-HCl (pH 8.0). Then, the degree of DNA methylation at various sites of the MLH1 gene was tested by pyrosequencing. The primers used were as described in the following table.

[6] = test system: RKO cells; test: gene expression analysis by RNA deep sequencing (FPKM) in RKO cells; format: cell-based; conditions: 10 μM PIP, hypoxia after AZA, FIG. 8 right graphs
Experimental: as §1, §2
Next, the expression levels of particular genes were analyzed. An RNA library was prepared using TruSeq Stranded mRNA Sample Prep Kit (Illumina, Inc.) according to the manufacturer's manual. Deep sequencing was performed using Illumina HiSeq 1500 or NextSeq 500 platform. FASTQ reads were mapped using TopHat, and transcripts were assembled using Cufflinks. gene expression was expressed as FPKM (fragments per kilobase of exon per million reads mapped). The results were as shown in the right graphs of FIG. 8.

| Compound | degree of methylation in the promoter region from −27 to −1 of the MLH1 gene after demethylation treatment ([1]; RKO cells, 5.0 μM AZA over 7 days, 10 nM TSA on the 7th day, FIG. 4A) | expression of mRNA of the MLH1 gene after demethylation treatment ([2]; RKO cells, 5.0 μM AZA over 7 days, 10 nM TSA on the 7th day, FIG. 4B) | genome-wide methylation level [3] | binding to the target double-stranded DNA (band shift) [4] | inhibition of DNA methylation in the region from −27 to −1 of the MLH1 gene [5] | degree of DNA methylation in the region from −27 to −1 of the MLH1 gene on R20 and R30 ([1]; AZA or AZA+TSA pretreated RKO cells, hypoxic conditions 1% O2, 5 μM PIP, FIGS. 6A and 6B) | methylation in a −70 region, a −63 region, a +156 region, and a +171 region of the MLH1 gene ([1]; sites distant from the target site, hypoxic conditions, 5 μM PIP, FIG. 6E) | expression of mRNA of the MLH1 gene, which is reduced along with methylation ([2]; AZA+TSA-treated cells, hypoxic conditions, 5 μM PIP, FIGS. 6C and 6D) | genes whose methylation level was reduced by Im0 and Im3 in common, TSS±1 kb region [3] [genes] | probes whose methylation level was reduced by Im0 and Im3 in common, TSS±1 kb region [3] [probes] | probes whose methylation level was reduced by Im0 and Im3 in common, whole genome [3] [probes] | genes whose methylation was selectively reduced by this PIP, TSS±1 kb region [3] [genes] | probes whose methylation was selectively reduced by this PIP, TSS±1 kb region [3] [probes] | probes whose methylation was selectively reduced by this PIP, whole genome [3] [probes] | gene expression of NOSTRIN, DSCR9, SLC22A25, OR3A4P and C1WTNF6 [6] | gene expression of TCP11, LYPDS, STAR, LOC253573 and LOC100507573 [6] |
| --- | --- | --- | --- | --- | --- | --- | --- | --- | --- | --- | --- | --- | --- | --- | --- | --- |
| Nc1ncn([C@H]2C[C@H](O)[C@@H](CO)O2)c(=O)n1 [AZA, 5-aza-2′-deoxycytidine, reference compound] | reduced | restored | demethylated genome-wide |  |  |  |  |  |  |  |  |  |  |  |  |  |
| CC(=O)Nc1cc(C(=O)Nc2cn(C)c(C(=O)NCCC(=O)Nc3cn(C)c(C(=O)Nc4cn(C)c(C(O)Nc5c[nH]c(C(=O)NCCCC(=O)Nc6cn(C)c(C(=O)Nc7cc(C(=O)NCCC(=O)Nc8cn(C)c(C(=O)Nc9cc(C(=O)Nc%10cc(C(=O)NCCC(=O)NCCCN(C)C)n(C)c%10)n(C)c9)n8)n(C)c7)n6)c5)n4)n3)n2)n(C)c1 (stereo not drawn) [PIP1, Ac-Py-Im-β-Im-Im-Py-γ-Im-Py-β-Im-Py-Py-β-Dp] |  |  |  | confirmed to bind to the target double-stranded DNA | inhibited DNA methylation in a concentration-dependent manner | an increase in the degree of methylation was suppressed | suppress methylation | maintained |  |  |  |  |  |  |  |  |
| Me-Py-Py-Im-Py-β-Dp [Im3] |  |  | methylation levels of genes as a whole were drastically reduced |  |  |  |  |  | 9 | 19 | 19 | 254 | 450 | 1171 | selectively maintained | maintained |
| Me-Py-Py-Py-Py-β-Dp [Im0] |  |  | methylation levels of some genes were drastically reduced |  |  |  |  |  | 9 | 19 | 19 | 1110 | 2135 | 6099 |  | maintained |
